According to publication PMC11436758, “Computer-aided drug design to generate a unique antibiotic family” (Nature Communications, 2024):
In brackets after ≈: the same amount, converted by molar mass. Several values for one entry are separate records, joined by “and”; a condition that tells them apart may be missing. Equal entries are not always repeated.

Experiments:
[1] = Dermal pharmacokinetics, serum concentration after topical application; assay type: in vivo, Sprague Dawley rats
Protocol: We determined that the maximum concentration present in serum was 1.02 μg/mL at 7.0 h after application with a time½ of 8.7 h. By 24 h the concentration of DNM0547 had decreased to 0.06 μg/mL and by 48 h was 0.03 μg/mL (Supplementary Fig. 8).
Rat PK. […]
Supplementary Figure 8. Dermal PK of DNM0547. a, 2% DNM0547 was applied to shaved skin of Sprague Dawley rats and DNM0547 concentration in serum was determined over time (n=5). b, PK parameters for DNM0547 in serum. CV, coefficient variation was determined using Graphpad Prism.
(1 picture or pasted object on this page, not shown here)

[2] = test system: 102 ATCC strains and clinical isolates of Staphylococcus, Streptomyces, and Enterococcus; assay: MIC panel summary over all strains; assay type: cell-based; conditions: of the seven strains above 2 μg/mL
Protocol: We also sought to determine if DNM0547 was bacteriostatic or bactericidal. Time kill experiments were carried out using increasing doses of DNM0547 against two different strains of MRSA.
The medium employed for the assay was Mueller Hinton II Broth (MHB II; Becton-Dickinson, Sparks, MD, USA). Agar plates used for the organisms were trypticase soy agar plus 5% sheep blood (BD; Sparks, MD, USA). MIC assay plates were prepared using the CLSI broth microdilution procedure. Automated liquid handlers (Multidrop 384, Biomek 2000 and Biomek FX) were used to conduct serial dilutions and liquid transfers. A standardized inoculum of each organism was prepared per CLSI methods. Suspensions were prepared to equal a 0.5 McFarland standard, followed by a 1:20 dilution in test media. The inocula were dispensed into sterile reservoirs divided by length (Beckman Colter) and the Biomek 2000 was used to inoculate the plates. Daughter plates were placed on the Biomek 2000 work surface in reverse orientation so that inoculation took place from low to high drug concentration. The Biomek 2000 delivered 10 μL of the diluted suspension into each well. These inoculations yielded a final cell concentration in the daughter plates of ~5 × 10^5 colony-forming units/mL in each well. The wells of the daughter plates ultimately contained 185 μL of broth, 5 μL of drug solution, and 10 μL of bacterial inoculum. Plates were covered with a sterile lid on the top plate, placed in plastic bags, and incubated at 35 °C for ~18 h. The microplates were viewed from the bottom using a plate viewer and the MIC was read. The MIC was recorded as the lowest concentration of drug that inhibited visible growth of the organism.

[3] = test system: E. coli D22 over-expressing AcpS; assay: MIC upon IPTG-induced over-expression of MBP-AcpS (MBP only as control); assay type: cell-based
Text: Over-expression of AcpS was confirmed by western blot (Supplementary Fig. 6b). This is consistent with inhibition of AcpS being the major mechanism of action for the antimicrobial activity of DNM0547.
Supplementary Figure 6. Increased expression of AcpS increases the MIC of DNM0547. a , the minimum inhibitory concentration (MIC; µg/ml) of the D22 strain of E. coli upon expression of plasmid borne maltose binding protein (MBP) AcpS from an IPTG inducible promoter versus just over-expression of MBP only. The D22 strain of E. coli has a porous outer membrane due to a point mutation in the lpxC gene enabling some compounds to enter the cell that can not permeate wild type E. coli. AcpS is expressed as a fusion with MBP. MICs were determined upon IPTG induction of MBP-AcpS with expression of just MBP used as control. b, western blot against MBP (New England Biolabs E8032S, 1:1000 dilution) to assess expression; IPTG induced expression of MBP and MBP-AcpS at the expected M Wts. c, equal protein was added from each E. coli protein extract used for the western blot. Ponceau stain of the membrane to assess protein loading and transfer.
(also on this page, place not known: DH5a BL 21 D 22 pMAL pMAL pAcpS pAcpS pMAL pMAL pAcpS pAcpS pMAL + pMAL pAcpS + pAcpS - - + - + - + - + - a, AcpS MBP M Compound MBP MBP-AcpS DNM0547 32 256) […]

[4] = test system: MRSA (ATCC 33591); assay: Rabbit ischemic ear wound model of infection by MRSA, topical treatment; assay type: in vivo, New Zealand White rabbits; conditions: for % wound closure / wound size (mean) / Wound size (mm2): Fig 2a; for Wound size (mm2): individual wounds
Protocol: New Zealand White rabbits from Charles River were employed for this study. Both male and female rabbits were used; sample size prevented disaggregation of data by sex. Investigators were blinded to group allocation, data collection, and data analysis. Food and water were given ad libidum and animals were acclimatized for 7 days with photoperiods of alternating 12 h light and dark at 21 °C in relative humidity of 40–50%. The formulation for delivery of DNM compounds was Glaxal base (WellSpring Pharmaceutical Canada Corp., Oakville, Canada). Formulation was performed by dissolving compound in Glaxal base to give final concentrations of 1% or 2% DNM compound (w/v). The analgesic (Buprenex 0.02 mg/kg sc) and anesthesia (isoflurane (0.5–5% with oxygen carrier 0.5–2 L/min) were used as required during procedures. An ischemia wound healing model was conducted surgically. Each wound was inoculated with 50 μl of 2 × 10^7 CFU/mL MRSA (ATCC #33591) and dressed. After 1 day, wounds were treated with either 50 μl control cream containing vehicle or 50 μl cream containing compound daily. Wounds were assessed and observations recorded using the Draize scoring system. Digital photographs of each wound were obtained and documented.

[5] = 2% on shaved skin, serum, mean, n=5

CC(C)c1cc(Cl)ccc1-c1cc(-c2nnn[nH]2)c(-c2ccc(Cl)cc2C(C)C)s1 [DNM0547]
maximum concentration present in serum ([1]; 2% applied topically): 1.02 µg/mL
Concmax [1, 5]: 1020 ng/mL
Time1/2 [1, 5]: 8.78 h and 8.7 h
Timemax [1, 5]: 7.00 h and 7.0 h
concentration at 6 h ([1]; Sprague Dawley, rat, in vivo, 2 %, Suppl Fig 8, Hour 6, individual animals, read-out: DNM0547 conc): 261 ng/mL
concentration at 12 h ([1]; Sprague Dawley, rat, in vivo, 2 %, Suppl Fig 8, Hour 12, individual animals, read-out: DNM0547 conc): 386 ng/mL
Tmax ([1]; Sprague Dawley, rat, serum, topical or ocular, 2% applied topically, read-out: time of maximum serum concentration after application): 7 h
concentration at 24 h ([1]; Sprague Dawley, rat, serum, topical, 2 %, 2% applied topically, 24 h): 60 ng/mL
concentration at 48 h ([1]; Sprague Dawley, rat, serum, topical, 2 %, 2% applied topically, 48 h): 30 ng/mL
DNM0547 conc ([1]; Suppl Fig 8, Hour 3, individual animals): 387 ng/mL and 281 ng/mL and 713 ng/mL and 1147 ng/mL and 236 ng/mL and 356 ng/mL
DNM0547 conc ([1]; Suppl Fig 8, Hour 6, individual animals): 449 ng/mL and 1172 ng/mL and 560 ng/mL and 656 ng/mL and 1620 ng/mL
DNM0547 conc ([1]; Suppl Fig 8, Hour 9, individual animals): 623 ng/mL and 414 ng/mL and 681 ng/mL and 201 ng/mL and 177 ng/mL and 767 ng/mL
DNM0547 conc ([1]; Suppl Fig 8, Hour 12, individual animals): 477 ng/mL and 879 ng/mL and 564 ng/mL and 277 ng/mL and 158 ng/mL
DNM0547 conc ([1]; Suppl Fig 8, Hour 24, individual animals): 65 ng/mL and 33 ng/mL and 92 ng/mL and 38 ng/mL and 45 ng/mL and 60 ng/mL
DNM0547 conc ([1]; Suppl Fig 8, Hour 48, individual animals): 46 ng/mL and 21 ng/mL and 55 ng/mL and 17 ng/mL and 16 ng/mL and 14 ng/mL
number of strains with MIC 4 μg/mL [2]: four
number of strains with MIC 8 μg/mL [2]: two
number of strains with MIC 32 μg/mL [2]: one
MIC ([3]; E. coli D22, IPTG-induced MBP only (control)): 32 µg/mL (≈ 70 µM)
MIC ([3]; E. coli D22, IPTG-induced MBP-AcpS): 256 µg/mL (≈ 560 µM)
MIC ([3]; Escherichia coli, E. coli D22 with over-expression of AcpS): 256 µg/mL (≈ 560 µM)
MIC ([3]; Escherichia coli, Suppl Fig 6a, MBP (control), replicates): 32 µg/mL (≈ 70 µM)
MIC ([3]; Escherichia coli, Suppl Fig 6a, MBP-AcpS, replicates): 256 µg/mL (≈ 560 µM)
MIC ([3]; Suppl Fig 6a, MBP (control), replicates): 32 µg/mL (≈ 70 µM)
MIC ([3]; Suppl Fig 6a, MBP-AcpS, replicates): 256 µg/mL and >256 µg/mL
% wound closure ([4]; Day 1): 0%
wound size (mean) ([4]; Day 1): 30.44 mm2
% wound closure ([4]; Day 3): 2.62%
wound size (mean) ([4]; Day 3): 29.642 mm2
% wound closure ([4]; Day 6): 5.42%
wound size (mean) ([4]; Day 6): 28.797 mm2
% wound closure ([4]; Day 9): 32.45%
wound size (mean) ([4]; Day 9): 20.563 mm2
% wound closure ([4]; Day 12): 53.18%
wound size (mean) ([4]; Day 12): 14.254 mm2
% wound closure ([4]; Day 15): 73.94%
wound size (mean) ([4]; Day 15): 7.93 mm2
% wound closure ([4]; Day 18): 87.25%
wound size (mean) ([4]; Day 18): 3.88 mm2
% wound closure ([4]; Day 21): 97.93%
wound size (mean) ([4]; Day 21): 0.636 mm2
Wound size (mm2) ([4]; Day 1): 29.51 mm2 and 29.83 mm2 and 28.32 mm2 and 27.53 mm2 and 32.52 mm2 and 34.03 mm2 and 26.69 mm2 and 25.2 mm2 and 36.13 mm2 and 34.64 mm2
Wound size (mm2) ([4]; Day 3): 31.06 mm2 and 29.08 mm2 and 27.25 mm2 and 24.3 mm2 and 31.24 mm2 and 33.16 mm2 and 27.53 mm2 and 25.7 mm2 and 33.48 mm2 and 33.62 mm2
Wound size (mm2) ([4]; Day 6): 28.85 mm2 and 31.18 mm2 and 26.33 mm2 and 24.01 mm2 and 30.73 mm2 and 32.69 mm2 and 26.4 mm2 and 21.93 mm2 and 33.19 mm2 and 32.66 mm2
Wound size (mm2) ([4]; Day 9): 23.09 mm2 and 21.11 mm2 and 22.61 mm2 and 20.99 mm2 and 19.44 mm2
Wound size (mm2) ([4]; Day 15): 10.17 mm2 and 8.72 mm2 and 14.95 mm2 and 20.1 mm2 and 0.9 mm2 and 0.08 mm2 and 1.02 mm2 and 4 mm2 and 10.8 mm2 and 8.56 mm2
Wound size (mm2) ([4]; Day 18): 8.29 mm2 and 0.93 mm2 and 7.78 mm2 and 10.81 mm2 and 0.41 mm2 and 0 mm2 and 0.53 mm2 and 2.2 mm2 and 3.09 mm2 and 4.76 mm2
Wound size (mm2) ([4]; Day 21): 0 mm2 (8×) and 5.12 mm2 and 1.24 mm2
reduction in bacterial survival as compared to vehicle control ([4]; quantitative microbiology at day 14, topical): > 99%
bacteria in the wound (CFUs per gram of tissue at end of study) ([4]; topical 2%): effectively eliminated bacteria from the wound
day of complete wound closure ([4]; topical 2%): ≤ 21 days
wound closure ([4]; topical for 14 days, versus vehicle control): significantly improved wound closure
